# Source: patent publication US9198433B2, “Substituted benzene fungicides” (E I DU PONT DE NEMOURS AND COMPANY, priority 2007, dated 2015)
# Marks after values point to notes of the source that are not given here.
# Legend:
# Format in all cases: in vivo
# [1] = system: Erysiphe graminis f. sp. tritici; test: Test A: wheat powdery mildew, preventive spray on wheat seedlings, disease rating
# Text: (§1) The test compounds were first dissolved in acetone in an amount equal to 3% of the final volume and then suspended at the desired concentration (in ppm) in acetone and purified water (50/50 mix) containing 250 ppm of the surfactant Trem® 014 (polyhydric alcohol esters). The resulting test suspensions were then used in Tests A-L. Spraying a 200 ppm test suspension to the point of run-off on the test plants was the equivalent of an application rate of 500 g/ha. The test suspension was sprayed to the point of run-off on wheat seedlings. […] A dash (-) indicates no test results. All results are for 200 ppm except where followed by an “*”, which indicates 40 ppm or “**”, which indicates 50 ppm.
# Septoria tritici = test: Test D: wheat leaf blotch, preventive spray on wheat seedlings, disease rating
# Text: The test compounds were first dissolved in acetone in an amount equal to 3% of the final volume and then suspended at the desired concentration (in ppm) in acetone and purified water (50/50 mix) containing 250 ppm of the surfactant Trem® 014 (polyhydric alcohol esters). The resulting test suspensions were then used in Tests A-L. Spraying a 200 ppm test suspension to the point of run-off on the test plants was the equivalent of an application rate of 500 g/ha. The test suspension was sprayed to the point of run-off on wheat seedlings. The following day the seedlings were inoculated with a spore suspension of Septoria tritici (the causal agent of wheat leaf blotch) and incubated in a saturated atmosphere at 24° C. for 48 h, and then moved to a growth chamber at 20° C. for 19 days, after which time disease ratings were made. […] A dash (-) indicates no test results. All results are for 200 ppm except where followed by an “*”, which indicates 40 ppm or “**”, which indicates 50 ppm.
# Alternaria solani = test: Test H: tomato early blight, preventive spray on tomato seedlings, disease rating
# Text: (§2) The test compounds were first dissolved in acetone in an amount equal to 3% of the final volume and then suspended at the desired concentration (in ppm) in acetone and purified water (50/50 mix) containing 250 ppm of the surfactant Trem® 014 (polyhydric alcohol esters). The resulting test suspensions were then used in Tests A-L. Spraying a 200 ppm test suspension to the point of run-off on the test plants was the equivalent of an application rate of 500 g/ha. The test suspension was sprayed to the point of run-off on tomato seedlings. […] A dash (-) indicates no test results. All results are for 200 ppm except where followed by an “*”, which indicates 40 ppm or “**”, which indicates 50 ppm.
# Botrytis cinerea = test: Test F: tomato Botrytis, preventive spray on tomato seedlings, disease rating
# Text: as §2
# Septoria nodorum = test: Test C: wheat glume blotch, preventive spray on wheat seedlings, disease rating
# Text: as §1
# [2] = system: Puccinia recondita f. sp. tritici; test: Test B: wheat leaf rust, preventive spray on wheat seedlings, disease rating
# Text: as §1
# [3] = 40 ppm (*), 100 = 100% disease control, 0 = no control relative to controls
# [4] = 200 ppm, 100 = 100% disease control, 0 = no control relative to controls
SMILES,"Percentage Disease Control, Test A ([1]; 40 ppm (*))","Percentage Disease Control, Test D (Septoria tritici; 40 ppm (*))","Percentage Disease Control, Test H (Alternaria solani; 40 ppm (*))","Percentage Disease Control, Test F (Botrytis cinerea; 40 ppm (*))","Percentage Disease Control, Test C (Septoria nodorum; 40 ppm (*))","Percentage Disease Control, Test B ([2]; 40 ppm (*))","Percentage Disease Control, Test H (Alternaria solani; [4])","Percentage Disease Control, Test F (Botrytis cinerea; [4])",further results
COC(=O)NCc1cc(-c2ccn(-c3nccc(C(F)(F)F)n3)n2)ccc1Cl [Cmpd 87],82* %,99* %,9* %,0* %,97* %,100* %,,,
COC(=O)NCc1cc(-c2ccn(-c3ccc(C(=O)OC)cc3)n2)ccc1Cl [Cmpd 108],,98* %,,,,,,,"Percentage Disease Control, Test A ([1]; 200 ppm): 0%; Percentage Disease Control, Test H (Alternaria solani; 200 ppm): 28%; Percentage Disease Control, Test F (Botrytis cinerea; 200 ppm): 0%; Percentage Disease Control, Test C (Septoria nodorum; 200 ppm): 95%; Percentage Disease Control, Test B ([2]; 200 ppm): 86%"
COC(=O)NCc1cc(-c2ccn(Cc3cc(C(F)(F)F)ccc3Cl)n2)ccc1Cl [Cmpd 53],98* %,99* %,92* %,0* %,94* %,99* %,,,
COC(=O)NCc1cc(-c2ccn(Cc3ccc(Cl)cc3)n2)ccc1Cl [Cmpd 67],96* %,100* %,96* %,0* %,99* %,99* %,,,
COC(=O)NCc1cc(C(C)=NOC[Si](C)(C)c2ccc(F)cc2)ccc1Cl [Compound 16],99* %,100* %,95* %,,100* %,100* %,,,"Percentage Disease Control, Test F (Botrytis cinerea; 200 ppm): 67%"
COC(=O)NCc1cc(-c2ccn(Cc3ccc(OC(F)(F)F)cc3)n2)ccc1Cl [Cmpd 66],99* %,100* %,96* %,0* %,100* %,100* %,,,
COC(=O)NCc1cc(-c2cnn(-c3ccc(Cl)cc3)n2)ccc1Cl [Compound 147],,,,,,,15%,61%,"Percentage Disease Control, Test A [1, 3]: 100* %; Percentage Disease Control, Test D (Septoria tritici; [3]): 100* %; Percentage Disease Control, Test C (Septoria nodorum; [3]): 99* %; Percentage Disease Control, Test B [2, 3]: 99* %"
COC(=O)NCc1cc(-c2cn[nH]c2)ccc1Cl [Cmpd 127],,,,,,,0%,0%,"Percentage Disease Control, Test A [1, 4]: 0%; Percentage Disease Control, Test D (Septoria tritici; [4]): 53%; Percentage Disease Control, Test C (Septoria nodorum; [4]): 0%; Percentage Disease Control, Test B [2, 4]: 9%"
COC(=O)NCc1cc(-c2ccn(-c3nc(C(C)C)ns3)n2)ccc1Cl [Cmpd 104],100* %,100* %,,,100* %,100* %,,,"Percentage Disease Control, Test H (Alternaria solani; 200 ppm): 40%; Percentage Disease Control, Test F (Botrytis cinerea; 200 ppm): 0%"
COC(=O)NCc1cc(-c2ccn(-c3ccc(C(C)C)cc3)n2)ccc1Cl [Cmpd 110],100* %,97* %,,96* %,100* %,100* %,,,"Percentage Disease Control, Test H (Alternaria solani; 200 ppm): 85%"
COC(=O)NCc1cc(-c2ccnc(-c3csc(C)n3)n2)ccc1Cl [Cmpd 131],,,,,,,0%,0%,"Percentage Disease Control, Test A [1, 4]: 0%; Percentage Disease Control, Test D (Septoria tritici; [4]): 13%; Percentage Disease Control, Test C (Septoria nodorum; [4]): 0%; Percentage Disease Control, Test B [2, 4]: 0%"
COC(=O)NCc1cc(-c2cnn(Cc3ccccc3)c2)ccc1Cl [Cmpd 128],,,,,,,0%,0%,"Percentage Disease Control, Test A [1, 4]: 29%; Percentage Disease Control, Test D (Septoria tritici; [3]): 96* %; Percentage Disease Control, Test C (Septoria nodorum; [4]): 82%; Percentage Disease Control, Test B [2, 4]: 98%"
